Results: ChEMBL document CHEMBL1150654, “New marine diterpenoids from the Okinawan soft coral Clavularia koellikeri” (J Nat Prod, 2002)
≈ marks a conversion by molar mass, not a printed value.

Experiments:
Type in all cases: functional, cell-based
[1] = system: HCC 2998; assay: Cytotoxicity against human HCC2998 cells after 48 hrs by sulforhodamine B assay; conditions: HCC 2998, 48 h
[2] = system: St-4; assay: Cytotoxicity against human St-4 cells after 48 hrs by sulforhodamine B assay; conditions: St-4, 48 h
[3] = system: U-251; assay: Cytotoxicity against human U251 cells after 48 hrs by sulforhodamine B assay; conditions: U-251, 48 h
[4] = system: HCT-116; assay: Cytotoxicity against human HCT116 cells after 48 hrs by sulforhodamine B assay; conditions: HCT-116, 48 h
[5] = system: SF-539; assay: Cytotoxicity against human SF539 cells after 48 hrs by sulforhodamine B assay; conditions: SF-539, 48 h
[6] = Cytotoxicity against human MKN1 cells after 48 hrs by sulforhodamine B assay; conditions: MKN-1, 48 h
[7] = system: OVCAR-4; assay: Cytotoxicity against human OVCAR4 cells after 48 hrs by sulforhodamine B assay; conditions: OVCAR-4, 48 h
[8] = system: MKN-28; assay: Cytotoxicity against human MKN28 cells after 48 hrs by sulforhodamine B assay; conditions: MKN-28, 48 h
[9] = system: DMS-273; assay: Cytotoxicity against human DMS273 cells after 48 hrs by sulforhodamine B assay; conditions: DMS-273, 48 h
[10] = system: NCI-H522; assay: Cytotoxicity against human NCI-H522 cells after 48 hrs by sulforhodamine B assay; conditions: NCI-H522, 48 h
[11] = system: NCI-H23; assay: Cytotoxicity against human NCI-H23 cells after 48 hrs by sulforhodamine B assay; conditions: NCI-H23, 48 h
[12] = system: OVCAR-5; assay: Cytotoxicity against human OVCAR5 cells after 48 hrs by sulforhodamine B assay; conditions: OVCAR-5, 48 h
[13] = system: OVCAR-8; assay: Cytotoxicity against human OVCAR8 cells after 48 hrs by sulforhodamine B assay; conditions: OVCAR-8, 48 h
[14] = system: ACHN; assay: Cytotoxicity against human ACHN cells after 48 hrs by sulforhodamine B assay
[15] = system: NCI-H226; assay: Cytotoxicity against human NCI-H226 cells after 48 hrs by sulforhodamine B assay; conditions: NCI-H226, 48 h
[16] = system: MCF7; assay: Cytotoxicity against human MCF7 cells after 48 hrs by sulforhodamine B assay; conditions: MCF7, 48 h
[17] = system: NCI-H460; assay: Cytotoxicity against human NCI-H460 cells after 48 hrs by sulforhodamine B assay; conditions: NCI-H460, 48 h
[18] = Cytotoxicity against human RXF631L cells after 48 hrs by sulforhodamine B assay; conditions: RXF 631, 48 h
[19] = system: SF-295; assay: Cytotoxicity against human SF295 cells after 48 hrs by sulforhodamine B assay; conditions: SF-295, 48 h
[20] = system: PC-3; assay: Cytotoxicity against human PC3 cells after 48 hrs by sulforhodamine B assay; conditions: PC-3, 48 h
[21] = system: SNB-78; assay: Cytotoxicity against human SNB78 cells after 48 hrs by sulforhodamine B assay; conditions: SNB-78, 48 h
[22] = system: MDA-MB-231; assay: Cytotoxicity against human MDA-MB-231 cells after 48 hrs by sulforhodamine B assay; conditions: MDA-MB-231, 48 h
[23] = Cytotoxicity against human HBC5 cells after 48 hrs by sulforhodamine B assay; conditions: HBC5, 48 h
[24] = system: HT-29; assay: Cytotoxicity against human HT-29 cells after 48 hrs by sulforhodamine B assay; conditions: HT-29, 48 h
[25] = system: SF-268; assay: Cytotoxicity against human SF268 cells after 48 hrs by sulforhodamine B assay; conditions: SF-268, 48 h
[26] = system: KM12; assay: Cytotoxicity against human KM12 cells after 48 hrs by sulforhodamine B assay; conditions: KM12, 48 h
[27] = system: SNB-75; assay: Cytotoxicity against human SNB75 cells after 48 hrs by sulforhodamine B assay; conditions: SNB-75, 48 h
[28] = system: DU-145; assay: Cytotoxicity against human DU145 cells after 48 hrs by sulforhodamine B assay; conditions: DU-145, 48 h
[29] = system: HCT-15; assay: Cytotoxicity against human HCT15 cells after 48 hrs by sulforhodamine B assay; conditions: HCT-15, 48 h
[30] = system: SK-OV-3; assay: Cytotoxicity against human SKOV3 cells after 48 hrs by sulforhodamine B assay; conditions: SK-OV-3, 48 h
[31] = system: A549; assay: Cytotoxicity against human A549 cells after 48 hrs by sulforhodamine B assay; conditions: A549, 48 h
[32] = system: MKN-74; assay: Cytotoxicity against human MKN74 cells after 48 hrs by sulforhodamine B assay; conditions: MKN-74, 48 h
[33] = system: DMS-114; assay: Cytotoxicity against human DMS114 cells after 48 hrs by sulforhodamine B assay; conditions: DMS-114, 48 h
[34] = system: OVCAR-3; assay: Cytotoxicity against human OVCAR-3 cells after 48 hrs by sulforhodamine B assay; conditions: OVCAR-3, 48 h
[35] = system: MKN-7; assay: Cytotoxicity against human MKN7 cells after 48 hrs by sulforhodamine B assay; conditions: MKN-7, 48 h
[36] = system: MKN-45; assay: Cytotoxicity against human MKN45 cells after 48 hrs by sulforhodamine B assay; conditions: MKN-45, 48 h
[37] = Cytotoxicity against human HBC4 cells after 48 hrs by sulforhodamine B assay; conditions: HBC4, 48 h
[38] = Cytotoxicity against human BSY1 cells after 48 hrs by sulforhodamine B assay; conditions: BSY-1, 48 h
[39] = system: LOX IMVI; assay: Cytotoxicity against human LOXIMVI cells after 48 hrs by sulforhodamine B assay

C=C1C(=O)O[C@H]2/C=C(\C)CC/C=C(\C)CC/C=C(\C)CC[C@H]12
IC50 [1]: 1.29 µg/mL (≈ 4.29 µM) | IC50 [2]: 3.9 µg/mL (≈ 13 µM) | IC50 [3]: 4.2 µg/mL (≈ 14 µM) | IC50 [4]: 1.17 µg/mL (≈ 3.89 µM) | IC50 [5]: 1.56 µg/mL (≈ 5.19 µM) | IC50 [6]: 1.2 µg/mL (≈ 3.99 µM) | IC50 [7]: 2.25 µg/mL (≈ 7.49 µM) | IC50 [8]: 0.96 µg/mL (≈ 3.2 µM) | IC50 [9]: 1.11 µg/mL (≈ 3.69 µM) | IC50 [10]: 0.66 µg/mL (≈ 2.2 µM) | IC50 [11]: 3.6 µg/mL (≈ 12 µM) | IC50 [12]: 2.31 µg/mL (≈ 7.69 µM) | IC50 [13]: 0.93 µg/mL (≈ 3.1 µM) | IC50 [14]: 3 µg/mL (≈ 9.99 µM) | IC50 [15]: 1.14 µg/mL (≈ 3.79 µM) | IC50 [16]: 0.9 µg/mL (≈ 3 µM) | IC50 [17]: 3.3 µg/mL (≈ 11 µM) | IC50 [18]: 4.8 µg/mL (≈ 16 µM) | IC50 [19]: 3.9 µg/mL (≈ 13 µM) | IC50 [20]: 1.11 µg/mL (≈ 3.69 µM) | IC50 [21]: 1.59 µg/mL (≈ 5.29 µM) | IC50 [22]: 4.5 µg/mL (≈ 15 µM) | IC50 [23]: 2.13 µg/mL (≈ 7.09 µM) | IC50 [24]: 1.47 µg/mL (≈ 4.89 µM) | IC50 [25]: 3 µg/mL (≈ 9.99 µM) | IC50 [26]: 1.32 µg/mL (≈ 4.39 µM) | IC50 [27]: 3.3 µg/mL (≈ 11 µM) | IC50 [28]: 3.3 µg/mL (≈ 11 µM) | IC50 [29]: 2.01 µg/mL (≈ 6.69 µM) | IC50 [30]: 6.6 µg/mL (≈ 22 µM) | IC50 [31]: 1.26 µg/mL (≈ 4.19 µM) | IC50 [32]: 0.81 µg/mL (≈ 2.7 µM) | IC50 [33]: 3.6 µg/mL (≈ 12 µM) | IC50 [34]: 1.14 µg/mL (≈ 3.79 µM) | IC50 [35]: 0.96 µg/mL (≈ 3.2 µM) | IC50 [36]: 3 µg/mL (≈ 9.99 µM) | IC50 [37]: 1.62 µg/mL (≈ 5.39 µM) | IC50 [38]: 1.35 µg/mL (≈ 4.49 µM) | IC50 [39]: 0.72 µg/mL (≈ 2.4 µM)
